Experimental data reported in patent US20070149435A1, “Cleansing composition including microencapsulated delivery vehicles” (Kimberly-Clark Worldwide, Inc., priority 2005, published 2007).
Like-named read-outs stand apart in the source and are kept apart here.

Columns and labels:
Staphylococcus aureus = assay: Biocidal efficacy of magnesium chloride in combination with PHMB, total plate count; format: cell-based; conditions: 15-minute contact time
Procedure: A 1.5-milliliter tube was prepared using magnesium chloride in water.
Two control samples were also prepared. One control sample was filled with 0.850 milliliters magnesium chloride. A second control sample was prepared by introducing 0.850 milliliters sterile water.
The tubes were then vortexed until an increase in temperature was observed.
0.05 milliliters of 1×10^7 CFU/milliliter culture of Staphylococcus aureus was added to each tube. After a 15-minute contact time, 0.1 milliliters of each tube was transferred into 0.9 milliliters letheen broth. To the broth, 10 milligrams/milliliter sodium thiosulfate was also added. The tubes were again vortexed. After vortexing, 0.1 milliliters of each tube was plated on Tryptic soy agar plates. The plates were inverted and incubated at 37° C. for 24 hours. An inoculum control plate was also plated to determine the concentration of the inoculum
After 24 hours, the plates were evaluated using a total plate count to determine the biocidal efficacy of each sample.

[1] = system: Methicillin-resistant Staphylococcus aureus; conditions: 0.005% PHMB, 10-minute contact time, 5% bovine serum albumin soil, n = 2
Procedure: This Example utilized 1.5-milliliter tubes containing a 1-milliliter blend of phosphate-buffered saline (pH 7.2) and 5% (w/v) bovine serum albumin soil. The tubes were placed in electric heat blocks set for 22° C., 30° C., 40° C. and 50° C., respectively. The tubes remained in the electric heat blocks for approximately 10 minutes.
After 10 minutes, 0.005% (by weight) active polyhexamehtylene biguanide (PHMB) (commercially available as Cosmocil® CQ from Arch Biocides, Inc., United Kingdom) was added to two tubes at each temperature level. Duplicate tubes without PHMB at each temperature were also made.
The tubes were then vortexed and Methicillin-resistant Staphylococcus aureus (approximately 1×10^5 colony forming units (CFU)) was then added to each tube. All of the tubes were then placed back into the heat blocks at their respective temperatures.
Following a 10-minute contact time, 0.1 milliliters of each sample was transferred to 0.9 milliliters letheen broth to neutralize the PHMB activity. The letheen samples were then plated in duplicate on Tryptic Soy agar plates using a WASP2 spiral plater (commercially available from Don Whitley Scientific, Ltd., Yorkshire, United Kingdom). The plates were inverted and incubated at 37±2° C. for 48 hours.
After 48 hours, the plates were evaluated using a total plate count to determine the biocidal efficacy of each sample.

Compound	LOG10 recovered (Staphylococcus aureus; PHMB 0%, magnesium chloride 50%)	Total CFU Recovered MRSA ([1]; 22° C.)	Total CFU Recovered MRSA ([1]; 30° C.)	Total CFU Recovered MRSA ([1]; 40° C.)	Total CFU Recovered MRSA ([1]; 50° C.)	LOG10 recovered (Staphylococcus aureus; PHMB 0.00025%, magnesium chloride 0%)
[Cl-].[Cl-].[Mg+2] [Magnesium Chloride, magnesium chloride]	1.9	–	–	–	–	–
polyhexamethylene biguanide [PHMB]	–	3.5	2.9	2.1	<2	4.8
